Assay results from paper PMC10671498, “Antiproliferative and Cytotoxic Properties of Propynoyl Betulin Derivatives against Human Ovarian Cancer Cells: In Vitro Studies” (International Journal of Molecular Sciences, 2023).

Columns and labels:
[1] = test system: SK-OV-3 cells; test: SRB cell proliferation assay, SK-OV-3; type: cell-based, human; conditions: for IC50: Homo sapiens
Description: This study used ovarian cancer cell lines, which are part of the panel of cell lines used as part of the NCI-60 Human Cell Lines Screen program, characterized by overexpression of the c-erbB2/neu (HER2) receptor [62, 63]. The human ovarian cancer cell lines (SK-OV-3 and OVCAR-3) were purchased from the American Type Culture Collection (ATCC®, Manassas, Virginia, USA). SK-OV-3 cells (ATCC No. HTB-77™) were cultured in McCoy’s 5A medium containing D-glucose (3 g/L), L-glutamine (0.219 g/L), and sodium bicarbonate (2.2 g/L) supplemented with 10% fetal bovine serum, 10 mM HEPES (pH 7.3–7.5), 100 U/mL penicillin, and 100 μg/mL streptomycin (all from Sigma Aldrich).
(§1) Betulin 1 and its derivatives were dissolved in dimethyl sulfoxide (DMSO; Sigma Aldrich) as a 15 mM stock solution. Working solutions were prepared through the dilution of stock solutions with culture medium. The final DMSO concentration in culture media was adjusted to 0.2%. The effect of tested compounds on the proliferation of SK-OV-3 and OVCAR-3 cells was measured using the In Vitro Toxicology Assay Kit, Sulforhodamine B based (Sigma Aldrich). Cells were seeded in 96-well plates (Greiner Bio-One, Kremsmünster, Austria) at an initial density of 3 × 10^3 cells per well in 200 µL of culture medium. After 24 h of incubation, betulin 1 and its derivatives at a concentration range of 0.1 μM to 30 μM were added to the wells. Control cultures were treated with vehicle alone (0.2% DMSO). The incubation periods for cells with test compounds were 1 day, 3 days, and 5 days. After appropriate incubation periods, culture media were removed, and cells were fixed in 10% trichloroacetic acid solution for 60 min at 4 °C. After fixation, the TCA solution was removed, and the plates were washed three times with deionized water (300 μL/well) and dried. At the next step, cells were stained with 0.4% sulforhodamine B for 30 min. The excess dye was removed by washing three times with 1% (vol/vol) acetic acid. The protein-bound dye was dissolved in 200 μL 10 mM Tris base solution. Absorbance was measured at 570 nm and 690 nm (reference wavelength) using the MRX Revelation plate reader (Dynex Technologies, Chantilly, VA, USA).
(§2) GraphPad Prism 10.0.2 (GraphPad Software Inc., San Diego, CA, USA) software was used for calculations and the statistical analysis of the IC50 values (Table 1). IC50 was determined by using the “nonlinear regression” mode, and the “log(inhibitor) vs. normalised response—Variable slope” equation was chosen in GraphPad Prism software for calculations. The obtained data were normalized to run from 100% down to 0%, and logarithms of concentration were used. Graphs (Figure 2, Figure 3, Figure 4, Figure 5 and Figure 8, and Supplementary Figure S1) were also prepared using this software. In the case of the lack of normal distribution or homogeneity of variances, the remaining results were analyzed using a non-parametric Kruskal–Wallis test with multiple comparisons. Post hoc analysis was performed with the non-parametric equivalent of Tukey’s test. A p value of <0.05 was considered statistically significant. Otherwise, a one-way ANOVA followed by a Tukey’s post hoc test was applied. t-tests was used to perform pairwise comparisons between group means. Analysis was performed using Statistica 13.1 software (StatSoft, Tulsa, OK, USA).

[2] = test system: MV-4-11 cells; design: method as in PMID 30947097; conditions: cited from earlier work
[3] = test system: OVCAR-3 cells; test: LDH release assay, OVCAR-3; type: cell-based, human; conditions: OVCAR-3, 24 h, all concentrations (3, 10, 30 μM)
Description: (§3) In order to evaluate the cytotoxic effect, the release of LDH into the culture medium using the In Vitro Toxicology Assay Kit, Lactic Dehydrogenase Based (TOX7; Sigma Aldrich) was assessed. SK-OV-3 and OVCAR-3 cells were plated and cultured in 96-well plates (Greiner Bio-One) at the initial density of 5 × 10^3 cells per well in 100 µL of culture medium. The density of the cells was determined in the same manner as in the SRB assay. After 24 h, the media were replaced with the working solutions, which contained appropriate test compounds at concentrations of 3 μM, 10 μM, 30 μM, and control medium (0.2% DMSO). Cells were exposed to the test substances for 24 h. The background control comprised wells without cells with only control medium. To determine the maximal LDH release (high control), half of the control cultures were treated with lysis buffer. Wells with untreated cells were used as the low control of the assay. LDH activity in media was assessed according to the manufacturer’s protocol. The absorbance was measured at wavelengths of 490 nm and 690 nm (background), and the percentage of released enzyme was calculated for cells growing in the presence of compounds according to the formula:Cytotoxicity [%] = [(AT − AL)/(AH − AL)] × 100 where AT is the absorbance of treated wells; AL is low control; and AH is high control (maximal LDH release).
(§4) Cytotoxicity was expressed as a percentage of the released LDH calculated according to the difference between the absorbance of the treated and low control wells divided by the difference between the absorbance of the high control and low control wells.

[4] = test system: SK-OV-3 cells; test: LDH release assay, SK-OV-3; type: cell-based, human; conditions: SK-OV-3, 24 h, all concentrations (3, 10, 30 μM)
Description: as §3, §4

[5] = test system: DU145 cells; design: method as in PMID 30947097; conditions: cited from earlier work
[6] = test system: A549 cells; design: method as in PMID 30947097; conditions: cited from earlier work
[7] = test system: P388 cells; design: method as in PMID 30947097; conditions: cited from earlier work
[8] = test system: 18Co normal myofibroblasts; test: SRB cell proliferation assay, 18Co normal myofibroblasts; type: cell-based
Description: Next, 18Co cells (ATCC No. CRL-1459™) were cultured in MEM medium containing HEPES buffer, 10% fetal bovine serum, 100 U/mL penicillin, and 100 μg/mL streptomycin (all from Sigma Aldrich).
as §1, §2

[9] = test system: CCRF/CEM cells; design: method as in PMID 30947097; conditions: cited from earlier work
[10] = test system: Hs294T cells; design: method as in PMID 30947097; conditions: cited from earlier work
[11] = test system: OVCAR-3 cells; test: SRB cell proliferation assay, OVCAR-3; type: cell-based, human; conditions: for IC50: Homo sapiens
Description: OVCAR-3 cells (ATCC No. HTB-161™) were cultured in RPMI-1640 medium containing HEPES buffer (2.383 g/L), sodium bicarbonate (1.5 g/L), sodium pyruvate (0.11 g/L) supplemented with 20% fetal bovine serum, 10 µg/mL bovine insulin, 100 U/mL penicillin, and 100 μg/mL streptomycin (all from Sigma Aldrich).
as §1, §2

C#CC(=O)OC[C@]12CC[C@@H](C(=C)C)C1C1CCC3[C@@]4(C)CC[C@H](OP(=O)(OCC)OCC)C(C)(C)C4CC[C@@]3(C)[C@]1(C)CC2 (stereo partly shown) [Compound 3, 3-O-diethoxyphosphorylbetulin-28-O-propynoylbetulin]
IC50 ([1]; SK-OV-3, 72 h): 290 nM | IC50 ([1]; SK-OV-3, 120 h): 340 nM | concentration at which antiproliferative activity (decrease in the number of cells) was evident ([1]; SK-OV-3, SRB assay, 0.1–30 µM): 1 µM | tumor growth inhibition [2]: Significant tumor growth inhibition | cytotoxicity (released LDH) [3]: strongest cytotoxicity | cytotoxicity (released LDH) [4]: strong cytotoxic effect | tumor growth inhibition [5]: Significant tumor growth inhibition | tumor growth inhibition [6]: Significant tumor growth inhibition | tumor growth inhibition [7]: Significant tumor growth inhibition | IC50 ([8]; 18Co, 5 days treatment, Neg: negative in the concentration used): Neg | IC50 ([8]; 72 h): 12400 nM | tumor growth inhibition [9]: Significant tumor growth inhibition | tumor growth inhibition [10]: Significant tumor growth inhibition | IC50 ([11]; OVCAR-3, 72 h): 900 nM | IC50 ([11]; OVCAR-3, 120 h): 490 nM | concentration at which antiproliferative activity (decrease in the number of cells) was evident ([11]; OVCAR-3, SRB assay, 0.1–30 µM): 1 µM
